Source: patent US7312246B2, “Proteomimetic compounds and methods” (Yale University, priority 2001, dated 2007)
Values belong to the compound of their own block, whether it stands above or below them.

Key:
[1] = molecular target: T1, gp41 core model (N36/C34 six helix bundle) (Human immunodeficiency virus type 1 group M subtype B, UniProt P04578); assay type: binding, HIV-1; conditions: 10 μM gp41 core model, 50 mM PBS, 150 mM NaCl, pH 7.0, 4° C.
T1 construct: two peptides (N36 and C34), from the N and C heptad repeat regions of gp41; purchased HHMI Biopolymer/Keck Foundation Biotechnology Resource Center, Yale University School of Medicine; host or cells: synthetic peptides
Excerpt: Spectra were corrected by the subtraction of a blank corresponding to the solvent composition of each sample.

Bcl-xL = Bcl-xL (Homo sapiens, UniProt Q07817); assay: Fluorescence polarization assay: displacement of fluorescein-labeled 16-mer Bak-peptide from Bcl-xL; assay type: binding; conditions: for binding affinity for Bcl-xL (in words): compared with m
Description: Based on these structural requirements we designed a series of terphenyl molecules (k-n) containing alkyl or aryl substituents on the three ortho positions (to mimic the key i, i+3, and i+7 groups in Bak or Bad) and carboxylic acid substituents on either end (to mimic the additional ion pair) (FIG. 17). The binding affinity of these molecules for Bcl-xL was assessed by a fluorescence polarization assay using fluoresceine-labeled 16-mer Bak-peptide. Displacement of this probe through competitive binding of the terphenyl into the hydrophobic cleft of BCl-xL would lead to a decrease in its fluorescence polarization which in turn could be related to the known affinity of the 16-mer Bak/Bcl-xL complex.

calmodulin (CaM) [2] = molecular target: T2, calmodulin (CaM) (Homo sapiens, UniProt P0DP23); assay: Antagonism of CaM activation of phosphodiesterase (PDE), monitored by hydrolysis of mant-cGMP; assay type: biochemical; conditions: for IC50: 13.9 nM CaM, 50 mu/ml PDE, 8 μM mant-cGMP, pH 7.0, read-out: IC50, inhibition of CaM activation of PDE
Description: 13.9 nM CaM, 50 mu/ml PDE, 8 μM mant-cGMP, 10 mM Mops, 0.5 mM MgCl2, 90 mM KCl, 0.73 mM CaCl2, 0.2% DMSO, pH 7.0.

calmodulin (CaM) [3] = molecular target: T2, calmodulin (CaM); assay: Polyacrylamide gel permeation chromatography (6 kD cutoff) with and without CaM; assay type: binding; conditions: 70 μM in buffer
calmodulin (CaM) [4] = molecular target: T2, calmodulin (CaM); assay: Avidin-based affinity resin derivatized with biotinylated CaM: retention of compound; assay type: binding
Excerpt: Discrete complex formation to CaM was indicated by the release of a from the column, as monitored by HPLC, on elution with […] biotin. […] To amplify the binding event between CaM and a, an enzymatic assay was also employed.

Solubility in buffer = assay type: physicochemical; conditions: buffer with <1% DMSO
Excerpt: For synthetic simplicity we changed the indole of Trp800 to phenyl and removed the hydroxyl of Thr803. Using Negishi couplings of differently substituted phenyltriflates, we prepared terphenyl a as a mimic of the calmodulin binding face of smMLCK.

T1 sequence (P04578 546-581): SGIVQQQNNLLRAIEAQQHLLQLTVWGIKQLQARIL
Bcl-xL, sequence (Q07817 whole entry): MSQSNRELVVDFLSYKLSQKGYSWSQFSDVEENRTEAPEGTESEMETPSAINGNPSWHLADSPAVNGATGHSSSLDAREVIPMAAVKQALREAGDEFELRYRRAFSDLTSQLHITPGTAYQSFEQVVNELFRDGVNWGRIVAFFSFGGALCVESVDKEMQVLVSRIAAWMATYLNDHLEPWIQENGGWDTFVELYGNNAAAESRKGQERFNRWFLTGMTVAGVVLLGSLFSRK

Compound: CC(C)Cc1cc(CCC(=O)O)ccc1-c1ccc(-c2ccc(OCC(=O)O)c(Cc3ccccc3)c2)c(Cc2ccccc2)c1 [j, 3-(3′,3″-dibenzyl-4″-(carboxymethoxy)-2-isobutyl-1,1′:4′,1″-terphenyl-4-yl)propanoic acid]
- effect on CD spectrum of gp41 core model (helicity of the hexameric bundle) [1]: modest enhancement in activity compared to f

Compound: Bis methyl 3-(1,1′:4′,1″-terphenyl-4,4″-yl)propanoic acid
- effect on CD spectrum of gp41 core model (helicity of the hexameric bundle) [1]: little effect on the protein CD spectrum even at high concentrations

- binding affinity for Bcl-xL (in words) (Bcl-xL): less binding affinity
Compound: CC(C)Cc1cc(-c2ccc(-c3ccc(CCC(=O)O)cc3CC(C)C)cc2Cc2ccccc2)ccc1OCC(=O)O [l, 3-(3′-Benzyl-4″-(carboxymethoxy)-2,3″-diisobutyl-1,1′4″1″-terphenyl-4-yl)propanoic acid]

- binding affinity for Bcl-xL (in words) (Bcl-xL): significant loss in binding affinity
Compound: CC(C)Cc1cc(CCC(=O)O)ccc1-c1ccc(-c2ccc(OCC(=O)O)c(Cc3cccc4ccccc34)c2CC(C)C)cc1 [n, 3-(4-(Carboxymethoxy)-2,2″-diisobutyl-3-naphthalen-1-ylmethyl-[1,1′:4′,1″]-terphenyl-4″-yl)propionic acid]

- IC50 (calmodulin (CaM) [2]): 0.009 µM
- potency, fold improvement over RS20 (calmodulin (CaM) [2]; relative to helical peptide RS20): 8 fold
Compound: CCc1cc(-c2ccc(OCC(=O)O)cc2C(C)C)ccc1-c1cccc(Cc2cccc3ccccc23)c1 [b, (2′-Ethyl-2″-isopropyl-3-naphthalen-1-ylmethyl-[1,1′:4′,1″]terphenyl-4″-yloxy)-acetic acid]

Compound: CC(C)Cc1cc(-c2ccc(-c3ccc(CCCN)cc3CC(C)C)cc2C(C)C)ccc1OCCN.Cl.Cl [g, 3-[4″-(2-aminoethoxy)-2,3″-diisobutyl-3′-isopropyl-1,1′:4′,1″-terphenyl-4-yl]propan-1-amine dihydrochloride]
- effect on CD spectrum of gp41 core model (helicity of the hexameric bundle) [1]: little effect on the protein CD spectrum even at high concentrations
- behaviour on gel permeation column, compound alone (calmodulin (CaM) [3]; alone): retained on the column
- behaviour on gel permeation column, mixed with one equivalent of CaM (calmodulin (CaM) [3]; one equivalent of CaM): passed through

- Kd (Bcl-xL; related to known affinity of 16-mer Bak/Bcl-xL complex, read-out: KD-value, binding to Bcl-xL): 0.114 µM
Compound: CC(C)Cc1cc(-c2ccc(-c3ccc(CCC(=O)O)cc3CC(C)C)cc2Cc2cccc3ccccc23)ccc1OCC(=O)O [m, 3-(4-(Carboxymethoxy)-3,2″-diisobutyl-2′-naphthalen-1-ylmethyl-[1,1′:4′,1″]-terphenyl-4″-yl)propionic acid]

Compound: O=C(O)CCc1ccc(-c2ccc(OCC(=O)O)cc2)cc1 [i, 3-[4′-(carboxymethoxy)-1,1′-biphenyl-4-yl)propanoic acid]
- effect on CD spectrum of gp41 core model (helicity of the hexameric bundle) [1]: little effect on the protein CD spectrum even at high concentrations

- IC50 (calmodulin (CaM) [2]): 0.02 µM
Compound: CCc1cc(-c2ccc(OCC(=O)O)cc2C(C)C)ccc1-c1cccc(Cc2ccc3ccccc3c2)c1 [c, (2′-Ethyl-2″-isopropyl-3-naphthalen-2-ylmethyl-[1,1′:4′,1″]terphenyl-4″-yloxy)-acetic acid]

Compound: CCc1cc(-c2ccc(OCC(=O)O)cc2C(C)C)ccc1-c1cccc(Cc2ccccc2)c1 [a, (3-Benzyl-2′-ethyl-2″-isopropyl-[1,1′:4′,1″]terphenyl-4″-yloxy)-acetic acid]
- IC50 (calmodulin (CaM) [2]): 0.8 µM
- inhibitory potency, fold less than RS20 (calmodulin (CaM) [2]; relative to 20-mer peptide RS20): 10 fold
- retention on avidin affinity resin derivatized with biotinylated CaM (calmodulin (CaM) [4]; CaM-derivatized resin): retention of the terphenyl on the column
- retention on underivatized avidin resin (control experiment) (calmodulin (CaM) [4]; underivatized avidin resin): no observable retention

Compound: CCc1cc(-c2ccc(OCC(=O)O)cc2C(C)C)ccc1-c1cccc(Cc2ccccc2)c1.N [48.NH4, Ammonium (3-benzyl-2′-ethyl-2″-isopropyl-[1,1′:4′,1″]terphenyl-4″-yloxy)-acetate]
- solubility in buffer (Solubility in buffer): surprisingly soluble in buffer with <1% DMSO
